In PubChem BioAssay (NCI):
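Here, GI50 denotes the concentration required for 50% inhibition of growth. At the TGI there is no net growth.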

What was measured:
Test in all cases: growth of human tumour cells (NCI), 384-well format
SF-539 CNS = tested on: SF-539 CNS
LOX IMVI melanoma = tested on: LOX IMVI melanoma
HCT-15 colon = tested on: HCT-15 colon
RXF 393 renal = tested on: RXF 393 renal
MDA-MB-231 breast = tested on: MDA-MB-231 breast
CAKI-1 renal = tested on: CAKI-1 renal
HCC-2998 colon = tested on: HCC-2998 colon
SK-MEL-28 melanoma = tested on: SK-MEL-28 melanoma
TK-10 renal = tested on: TK-10 renal
SF-268 CNS = tested on: SF-268 CNS
A498 renal = tested on: A498 renal
IGROV1 ovarian = tested on: IGROV1 ovarian
MDA-MB-468 breast = tested on: MDA-MB-468 breast
NCI-H322M lung = tested on: NCI-H322M lung
COLO 205 colon = tested on: COLO 205 colon
PC-3 prostate = tested on: PC-3 prostate
OVCAR-3 ovarian = tested on: OVCAR-3 ovarian
HS 578T breast = tested on: HS 578T breast
SF-295 CNS = tested on: SF-295 CNS
EKVX NSCLC = tested on: EKVX NSCLC
NCI-H226 lung = tested on: NCI-H226 lung
OVCAR-4 ovarian = tested on: OVCAR-4 ovarian
UO-31 renal = tested on: UO-31 renal
CCRF-CEM leukemia = tested on: CCRF-CEM leukemia
ACHN renal = tested on: ACHN renal
MCF7 breast = tested on: MCF7 breast
A549 NSCLC = tested on: A549 NSCLC
HOP-92 NSCLC = tested on: HOP-92 NSCLC
NCI-H522 lung = tested on: NCI-H522 lung
U251 glioblastoma = tested on: U251 glioblastoma
T-47D breast = tested on: T-47D breast
786-0 renal = tested on: 786-0 renal
NCI-H23 lung = tested on: NCI-H23 lung
RPMI-8226 leukemia = tested on: RPMI-8226 leukemia
MOLT-4 leukemia = tested on: MOLT-4 leukemia
UACC-257 melanoma = tested on: UACC-257 melanoma
KM12 colon = tested on: KM12 colon
NCI/ADR-RES ovarian = tested on: NCI/ADR-RES ovarian
NCI-H460 NSCLC = tested on: NCI-H460 NSCLC
HCT-116 colon = tested on: HCT-116 colon
SK-OV-3 ovarian = tested on: SK-OV-3 ovarian
BT-549 breast = tested on: BT-549 breast
M14 melanoma = tested on: M14 melanoma
SNB-75 CNS = tested on: SNB-75 CNS
MDA-MB-435 melanoma = tested on: MDA-MB-435 melanoma
SW-620 colon = tested on: SW-620 colon
DU-145 prostate = tested on: DU-145 prostate
K-562 leukemia = tested on: K-562 leukemia
HOP-62 NSCLC = tested on: HOP-62 NSCLC
SNB-19 CNS = tested on: SNB-19 CNS
SK-MEL-5 melanoma = tested on: SK-MEL-5 melanoma
UACC-62 melanoma = tested on: UACC-62 melanoma
MALME-3M melanoma = tested on: MALME-3M melanoma
SN12C renal = tested on: SN12C renal
HL-60(TB) leukemia = tested on: HL-60(TB) leukemia
OVCAR-8 ovarian = tested on: OVCAR-8 ovarian
HT29 colon = tested on: HT29 colon

`COc1cc2nc(N3CCCN(C)CC3)nc(NC3CCN(Cc4ccccc4)CC3)c2cc1OC` showed a GI50 (SF-539 CNS) of 0.339 µM, a TGI (SF-539 CNS) of 0.916 µM and a GI50 (LOX IMVI melanoma) of 1.54 µM. The TGI (LOX IMVI melanoma) was 2.89 µM, the GI50 (HCT-15 colon) was 0.611 µM and the TGI (HCT-15 colon) was 1.9 µM. The GI50 (RXF 393 renal) was 0.572 µM, the TGI (RXF 393 renal) was 1.89 µM and the GI50 (MDA-MB-231 breast) was 0.725 µM. It also gave a TGI (MDA-MB-231 breast) of 2.11 µM, a GI50 (CAKI-1 renal) of 0.578 µM and a TGI (CAKI-1 renal) of 1.83 µM. The GI50 (HCC-2998 colon) was 0.867 µM, the TGI (HCC-2998 colon) was 2.13 µM and the GI50 (SK-MEL-28 melanoma) was 1.64 µM. For the same compound, the TGI (SK-MEL-28 melanoma) was 3.02 µM, the GI50 (TK-10 renal) was 1.18 µM and the TGI (TK-10 renal) was 2.5 µM. For the same compound, the GI50 (SF-268 CNS) was 0.943 µM, the TGI (SF-268 CNS) was 2.14 µM and the GI50 (A498 renal) was 0.625 µM. The TGI (A498 renal) was 1.83 µM, the GI50 (IGROV1 ovarian) was 1.85 µM and the TGI (IGROV1 ovarian) was 3.83 µM. It also gave a GI50 (MDA-MB-468 breast) of 1.2 µM, a TGI (MDA-MB-468 breast) of 2.45 µM and a GI50 (NCI-H322M lung) of 1.44 µM. The TGI (NCI-H322M lung) was 2.84 µM, the GI50 (COLO 205 colon) was 1.34 µM and the TGI (COLO 205 colon) was 2.64 µM. It also gave a GI50 (PC-3 prostate) of 1.14 µM, a TGI (PC-3 prostate) of 2.55 µM and a GI50 (OVCAR-3 ovarian) of 0.54 µM. It also gave a TGI (OVCAR-3 ovarian) of 1.71 µM, a GI50 (HS 578T breast) of 1.48 µM and a TGI (HS 578T breast) of 2.81 µM. For the same compound, the GI50 (SF-295 CNS) was 1.55 µM, the TGI (SF-295 CNS) was 2.89 µM and the GI50 (EKVX NSCLC) was 1.65 µM. For the same compound, the TGI (EKVX NSCLC) was 3.62 µM, the GI50 (NCI-H226 lung) was 1.59 µM and the TGI (NCI-H226 lung) was 3.18 µM. The GI50 (OVCAR-4 ovarian) was 1.01 µM, the TGI (OVCAR-4 ovarian) was 2.19 µM and the GI50 (UO-31 renal) was 1.78 µM. It also gave a TGI (UO-31 renal) of 3.18 µM, a GI50 (CCRF-CEM leukemia) of 0.227 µM and a TGI (CCRF-CEM leukemia) of 0.622 µM. It also gave a GI50 (ACHN renal) of 1.65 µM, a TGI (ACHN renal) of 3.04 µM and a GI50 (MCF7 breast) of 0.694 µM. The TGI (MCF7 breast) was 2.02 µM, the GI50 (A549 NSCLC) was 1.66 µM and the TGI (A549 NSCLC) was 3.08 µM. It also gave a GI50 (HOP-92 NSCLC) of 1.38 µM, a TGI (HOP-92 NSCLC) of 2.72 µM and a GI50 (NCI-H522 lung) of 1.43 µM. For the same compound, the TGI (NCI-H522 lung) was 2.75 µM, the GI50 (U251 glioblastoma) was 1.15 µM and the TGI (U251 glioblastoma) was 2.39 µM. It also gave a GI50 (T-47D breast) of 1.78 µM, a TGI (T-47D breast) of 3.2 µM and a GI50 ([…]-0 renal) of 1.3 µM. It also gave a TGI (786-0 renal) of 2.59 µM, a GI50 (NCI-H23 lung) of 1.56 µM and a TGI (NCI-H23 lung) of 3.16 µM. It also gave a GI50 (RPMI-8226 leukemia) of 0.449 µM, a TGI (RPMI-8226 leukemia) of 1.54 µM and a GI50 (MOLT-4 leukemia) of 0.538 µM. The TGI (MOLT-4 leukemia) was 1.84 µM, the GI50 (UACC-257 melanoma) was 0.178 µM and the TGI (UACC-257 melanoma) was 0.319 µM. It also gave a GI50 (KM12 colon) of 0.434 µM, a TGI (KM12 colon) of 1.67 µM and a GI50 (NCI/ADR-RES ovarian) of 4.78 µM. The TGI (NCI/ADR-RES ovarian) was 15.9 µM, the GI50 (NCI-H460 NSCLC) was 0.456 µM and the TGI (NCI-H460 NSCLC) was 1.5 µM. It also gave a GI50 (HCT-116 colon) of 0.351 µM, a TGI (HCT-116 colon) of 1.02 µM and a GI50 (SK-OV-3 ovarian) of 1.35 µM. The TGI (SK-OV-3 ovarian) was 2.66 µM, the GI50 (BT-549 breast) was 1.09 µM and the TGI (BT-549 breast) was 2.3 µM. For the same compound, the GI50 (M14 melanoma) was 0.6 µM, the TGI (M14 melanoma) was 1.85 µM and the GI50 (SNB-75 CNS) was 1.66 µM. For the same compound, the TGI (SNB-75 CNS) was 3.04 µM, the GI50 (MDA-MB-435 melanoma) was 1.57 µM and the TGI (MDA-MB-435 melanoma) was 2.93 µM. For the same compound, the GI50 (SW-620 colon) was 0.405 µM, the TGI (SW-620 colon) was 1.45 µM and the GI50 (DU-145 prostate) was 1.38 µM. It also gave a TGI (DU-145 prostate) of 2.73 µM, a GI50 (K-562 leukemia) of 0.163 µM and a TGI (K-562 leukemia) of 0.366 µM. The GI50 (HOP-62 NSCLC) was 1.76 µM, the TGI (HOP-62 NSCLC) was 3.17 µM and the GI50 (SNB-19 CNS) was 1.51 µM. For the same compound, the TGI (SNB-19 CNS) was 3.34 µM, the GI50 (SK-MEL-5 melanoma) was 0.968 µM and the TGI (SK-MEL-5 melanoma) was 2.16 µM. The GI50 (UACC-62 melanoma) was 1.28 µM, the TGI (UACC-62 melanoma) was 2.57 µM and the GI50 (MALME-3M melanoma) was 1.15 µM. For the same compound, the TGI (MALME-3M melanoma) was 2.37 µM, the GI50 (SN12C renal) was 1.72 µM and the TGI (SN12C renal) was 3.22 µM. The GI50 (HL-60(TB) leukemia) was 0.233 µM, the TGI (HL-60(TB) leukemia) was 0.541 µM and the GI50 (OVCAR-8 ovarian) was 1.03 µM. For the same compound, the TGI (OVCAR-8 ovarian) was 2.24 µM, the GI50 (HT29 colon) was 0.395 µM and the TGI (HT29 colon) was 1.32 µM.
